Values after ≈ are worked out from the molar mass of the structure shown. Bounds are passed on as bounds.

For this series the following is noted: buffer; pH 7.4; 200.0 µM.
The compound `COc1cc2ccccc2cc1C(=O)N1CCN(C(C)=O)CC1` registered a solubility (kinetic) of 46.6 µg/mL (≈ 149 µM). To `CC(C)C(C)NC(=O)COc1ccc(OCc2ccccc2)cc1` (centres undefined) belongs 1.9 µg/mL (≈ 5.8 µM); to `CS(=O)(=O)c1ccc(NS(=O)(=O)c2ccc(Cl)c(C(=O)NC3=NCCS3)c2)cc1`, 24 µg/mL (≈ 50.6 µM); to `Cc1ccc(C(=O)CSc2nnc3n2CCCCC3)s1`, more than 46.1 µg/mL.

For the compound `COc1ccccc1N1CCN(Cc2ccc(O)c3ncccc23)CC1`, the solubility (kinetic) was found to be 7.5 µg/mL (≈ 21.5 µM). Then `CN(C)C(=O)C#Cc1ccccc1`, with more than 26 µg/mL; and `CCC(=O)N(Cc1cc2cc(OC)ccc2[nH]c1=O)c1ccc(C)cc1`, with 3 µg/mL (≈ 8.56 µM). Then `COc1ccc(NC(=O)c2ccc(-c3ccc([N+](=O)[O-])cc3)o2)cc1`, with 1.2 µg/mL (≈ 3.55 µM). Then `Cc1ccc(Nc2c(-c3ccc(C)o3)nc3ncccn23)cc1`, with 1.9 µg/mL (≈ 6.24 µM); and `CCN(CC)CCOC(=O)c1ccc([N+](=O)[O-])cc1.Cl`, with more than 45.4 µg/mL; and `Fc1ccc(-c2nnc(N3CCOCC3)c3ccccc23)cc1F`, with more than 49.1 µg/mL.

Consider `CCCCCC(=O)NC(=S)NC1C2CC3CC(C2)CC1C3` (centres undefined), for which the solubility (kinetic) was 28.3 µg/mL (≈ 91.7 µM). `O=C1C(Cc2ccc(O)cc2)NC(=S)N1C1CCCCC1` (centres undefined) yielded a kinetic solubility of 44.9 µg/mL (≈ 147 µM). To `Cc1nc(-c2cccc(NC(=O)Cc3ccccc3)c2)cs1` belongs 30.1 µg/mL (≈ 97.6 µM). To `Cc1ccsc1C(=O)N1CCN(c2ccccn2)CC1` belongs more than 43.1 µg/mL; to `O=C(NCCN1CCOCC1)c1ccccc1Cl`, more than 40.3 µg/mL; to `CC(=O)Nc1cc2c3c(c1)CCC(=O)N3CCC2`, more than 36.6 µg/mL. Consider `COc1cc(C(=O)OCC(=O)NCCCc2ccccc2)ccc1OCC(C)C`, for which the kinetic solubility came to 1.2 µg/mL (≈ 3 µM).

`CCN1CCN(CCc2nc3cc([N+](=O)[O-])ccc3n2C)CC1` returned a kinetic solubility of more than 47.6 µg/mL.

As to `CNc1ccc(C(=O)c2ccccc2C(=O)O)cc1[N+](=O)[O-]`, the solubility (kinetic) was more than 45 µg/mL. To `c1ccc2[nH]c(-c3cnco3)cc2c1` belongs 21.6 µg/mL (≈ 117 µM); to `O=C(CS(=O)(=O)c1ccc(F)cc1)NCc1ccccc1`, 16.2 µg/mL (≈ 52.7 µM).

Regarding `CCCOc1ncnc2c1[nH]c1ccc(C)cc12`, the kinetic solubility came to 0.9 µg/mL (≈ 3.73 µM).

Turning to `O=C(O)c1ccc(Cn2cnc3cccnc32)cc1`, the solubility (kinetic) is more than 38 µg/mL. Compound `COC(=O)c1ccc(NC(=O)c2cc(Cl)ccc2OC)cc1` yielded a solubility (kinetic) of less than 0.7 µg/mL. Then `O=C(CN1CCN(Cc2ccc(F)cc2)CC1)Nc1ccccc1F`, with more than 51.8 µg/mL; and `CC1(C)COCN1C(=O)c1ccc(C#N)cc1`, with more than 34.5 µg/mL. In the case of `O=C(O)CC(NC(=O)C12CC3CC(CC(C3)C1)C2)c1cccc([N+](=O)[O-])c1` (centres undefined), the kinetic solubility is more than 55.9 µg/mL. Turning to `COc1ccc(CCN(C)C(=O)c2cnc(C)cn2)cc1OC`, the solubility (kinetic) worked out at 38.1 µg/mL (≈ 121 µM). Then `N/C(=N\[N+](=O)[O-])N1CCN(C(=O)OC2CCCC2)CC1`, with more than 42.8 µg/mL; and `Cc1ccc(Cn2ccc(O)c(Cc3ccccc3)c2=O)cc1`, with less than 0.7 µg/mL. Then `COc1ccc(OC)c(C(C)NC(=S)NC2CCCCC2)c1` (centres undefined), with 28 µg/mL (≈ 86.8 µM).

As for `Cn1cccc1C1CCCN1CC(=O)Nc1ccc(C#N)c(Cl)c1` (centres undefined), the solubility (kinetic) stood at 12.3 µg/mL (≈ 35.9 µM). To `CC(NC(=O)C(=S)N1CCN(C)CC1)c1ccccc1` (centres undefined) belongs more than 43.7 µg/mL; to `CCC(C)c1ccc(C(C)NC(=S)NCc2ccc(F)cc2)cc1` (centres undefined), less than 0.4 µg/mL. Then `Cc1sc2nc(CSC(C)C(=O)N3CCOCC3)[nH]c(=O)c2c1C` (centres undefined), with more than 55.1 µg/mL. Then `O=c1c2ccccc2[nH]c(=S)n1Cc1ccccc1Cl`, with 0.9 µg/mL (≈ 2.97 µM); and `OC(CCNCCc1c[nH]c2ccccc12)C(F)(F)Cl` (centres undefined), with more than 45.4 µg/mL; and `CSc1ncccc1C(=O)N1CCN(C(=O)c2ccccc2)CC1`, with more than 51.2 µg/mL. `N#Cc1c(N2CCN(c3ccc(F)cc3)CC2)nc(N)c2c(N)nc3c(c12)CC(=O)N3C1CC1` yielded a kinetic solubility of 0.8 µg/mL (≈ 1.74 µM). To `O=C(COC(=O)c1ccco1)NC1CCCC1` belongs 28.1 µg/mL (≈ 118 µM); to `Cc1cc([N+](=O)[O-])ccc1NCc1ccc2c(c1)OCCO2`, 10.8 µg/mL (≈ 36 µM); to `COc1ccc(OCC(=O)OC2CCCN(C)C2)cc1.Cl` (centres undefined), more than 47.4 µg/mL. In turn, `N#Cc1ccccc1NC(=S)NC(=O)c1cccs1` had a kinetic solubility of 30.7 µg/mL (≈ 107 µM). `CC(Oc1ccccc1)C(=O)OCC(=O)NC(=O)NC1CCCCC1` (centres undefined): the solubility (kinetic) amounted to 47.7 µg/mL (≈ 137 µM). Then `CCc1noc(C)c1C(=O)NCCc1ccc(S(N)(=O)=O)cc1`, with more than 50.6 µg/mL. Then `COc1c(N2CCN[C@H](C)C2)c(F)cc2c(=O)c(C(=O)O)cn(C3CC3)c12`, with 38.6 µg/mL (≈ 103 µM); and `Cc1ccc(N2C(=O)CN(Cc3ccccc3)C2=S)cc1C`, with 0.3 µg/mL (≈ 0.966 µM). Then `CC(O)c1nc2ccccc2n1Cc1ccccc1` (centres undefined), with 35.6 µg/mL (≈ 141 µM); and `Cn1c(SCCc2ccc([N+](=O)[O-])cc2)nccc1=O`, with 25.9 µg/mL (≈ 88.9 µM); and `Cc1cccc(C)c1NC(=O)CNC(=O)Cc1ccccc1[N+](=O)[O-]`, with 18.2 µg/mL (≈ 53.3 µM). As for `Cc1cnc(NC(=O)Cc2ccc(Br)cc2)s1`, the solubility (kinetic) is less than 0.3 µg/mL. Turning to `COc1ccc(C(=O)NCCNC(=O)c2ccc(OC)cc2)cc1`, the kinetic solubility worked out at 2.9 µg/mL (≈ 8.83 µM). To `CC(=O)c1cn(Cc2ccccc2F)c2ccccc12` belongs less than 0.6 µg/mL; to `Cc1cc(C(F)F)nn1CC(=O)NC1CCCC1`, more than 38.6 µg/mL; to `C/C(=N\O)C(C)(C)Nc1ccccc1F`, 28.1 µg/mL (≈ 134 µM). To `CC(NC(=O)COC(=O)c1cc(=O)c2ccccc2o1)c1ccccc1` (centres undefined) belongs more than 52.7 µg/mL; to `CCNC(=S)Nc1ccc(OCc2nc3ccccc3s2)cc1`, 2.8 µg/mL (≈ 8.15 µM); to `Cn1c(N)c(C(=O)COc2ccc(C#N)cc2)c(=O)n(C)c1=O`, 9.4 µg/mL (≈ 29.9 µM). To `N#Cc1nc(-c2ccc(F)cc2)oc1N1CCC(C(N)=O)CC1` belongs 12.4 µg/mL (≈ 39.5 µM); to `Cc1nc(N=C(N)N)nc2ccccc12`, more than 30.2 µg/mL. The compound `Cc1ccc(SCCSc2nc(N)cc(=O)[nH]2)cc1` had a kinetic solubility of 6.7 µg/mL (≈ 22.8 µM). To `O=C1c2ccccc2NC(c2ccccc2)N1CCCN1CCOCC1` (centres undefined) belongs more than 52.7 µg/mL; to `Cc1ccc(NS(=O)(=O)c2ccc3c(c2)n(C)c(=O)n3C)cc1C`, 1.2 µg/mL (≈ 3.47 µM). Then `CCCCC(=O)Nc1cccc(C(C)O)c1` (centres undefined), with more than 33.2 µg/mL; and `CCOC(=O)N1CCC(NS(=O)(=O)c2ccccc2)CC1`, with more than 46.9 µg/mL. Then `CC1CCCCN1C(=O)CCS(=O)(=O)c1cccc2nonc12` (centres undefined), with 41.8 µg/mL (≈ 124 µM); and `O=C(NC1CC1)c1c(O)c2ccccc2[nH]c1=O`, with 2.8 µg/mL (≈ 11.5 µM). The compound `CCCn1c(SCC(=O)N(CC)CC)nnc1-c1ccncc1` had a kinetic solubility of more than 50 µg/mL. To `C/C(=N/OC(=O)C1CC1)c1cc(-c2ccc(Cl)cc2)no1` belongs 0.4 µg/mL (≈ 1.31 µM); to `CC(=O)NC1=NN(C(C)=O)C(C)(c2cccnc2)S1` (centres undefined), more than 41.7 µg/mL; to `Cn1c(C(=O)c2ccccc2[N+](=O)[O-])nc2ccccc21`, 36.1 µg/mL (≈ 128 µM). `COc1cc(C(=O)Nc2nc(C)cc(C)n2)cc(OC)c1OC` displayed a kinetic solubility of 45.4 µg/mL (≈ 143 µM). Then `O=C(OCc1cccc([N+](=O)[O-])c1)c1cc(=O)[nH]c2ccccc12`, with less than 0.3 µg/mL. Then `COc1cccc(C(O)Cc2nc3ccccc3n2C)c1OC` (centres undefined), with more than 46.9 µg/mL. Compound `CCOC(=O)c1c(C)n(CC)c2c1cc(O)c1ccccc12` gave a solubility (kinetic) of less than 0.6 µg/mL.

The compound `ClCc1cc2ccccc2nc1Cl` gave a solubility (kinetic) of 6.5 µg/mL (≈ 30.6 µM). Then `COc1ccc(C(=O)N2CCC(c3ccccc3)CC2)c(OC)c1OC`, with 47.6 µg/mL (≈ 134 µM); and `O=C(COC(=O)c1ccc([N+](=O)[O-])o1)Nc1ccc(F)cc1`, with more than 46.2 µg/mL; and `CC(C)c1ccccc1OCC(=O)N1CCCN(C)CC1`, with more than 43.6 µg/mL. To `O=C(NCc1ccccc1)NCC12CC3CC(CC(C3)C1)C2` belongs 1.3 µg/mL (≈ 4.36 µM). `O=C(CN1C(=O)NC2(CCCCCC2)C1=O)c1cccs1` came in with a solubility (kinetic) of more than 46 µg/mL. To `COc1ccc(CCN(C)C2CC(=O)N(c3ccccc3)C2=O)cc1OC` (centres undefined) belongs more than 55.3 µg/mL; to `Cc1cccc(NC(=S)NCCc2ccc3c(c2)OCCO3)c1C`, 27.7 µg/mL (≈ 80.9 µM); to `COc1ccc(CNC(=O)CCCSc2ccccc2)cc1`, 2.4 µg/mL (≈ 7.61 µM).

In turn, `CC1Cc2ccccc2N1Cc1cccc(S(=O)(=O)N(C)C)c1` (centres undefined) yielded a solubility (kinetic) of 9.4 µg/mL (≈ 28.4 µM). Then `Cn1cc(-c2cc(C(=O)O)on2)cn1`, with more than 29 µg/mL. Compound `Cc1cccn2c(=O)c3cc(C(=O)N4COCC4(C)C)sc3nc12` had a solubility (kinetic) of 9.2 µg/mL (≈ 26.8 µM). To `O=C(O)c1ccc(NC2=Nc3cccc4cccc2c34)cc1` belongs 36 µg/mL (≈ 125 µM). The compound `CCc1c(C)nc(N)c(C#N)c1-c1ccccc1` displayed a solubility (kinetic) of 0.3 µg/mL (≈ 1.26 µM). To `Cc1cccc(C)c1OCCCCN1CCNCC1.O=C(O)C(=O)O` belongs 46 µg/mL; to `CCO/C(C)=C1/SC(=S)NC1=O`, more than 30.5 µg/mL; to `CC1CCCC(NC(=O)c2cccs2)C1C` (centres undefined), 23 µg/mL (≈ 96.9 µM).

In the case of `COc1ccccc1OCC(=O)Nc1ccc2c(c1)OCCO2`, the solubility (kinetic) was 39.1 µg/mL (≈ 124 µM).

For the compound `O=C(CCc1ccncc1)N1CCCC(Nc2ccc(F)c(F)c2)C1` (centres undefined), the kinetic solubility is 43.9 µg/mL (≈ 127 µM). To `O=C1c2ccccc2CN1c1ccccc1` belongs 12.4 µg/mL (≈ 59.3 µM). `O=C(Nc1ccc(Nc2ccccc2)cc1)Nc1ccccc1Cl` came in with a solubility (kinetic) of less than 0.2 µg/mL.

The compound `O=C(Nc1cccnc1Cl)c1cc(-c2ccc(F)cc2)on1` displayed a kinetic solubility of less than 0.2 µg/mL. To `Cc1cc(C)c(S(=O)(=O)N2CCCc3ccccc32)c(C)c1` belongs 1.8 µg/mL (≈ 5.71 µM); to `CCCCc1ccc(NC(=O)Cn2c(=O)c(N3CCCCC3)c(N)n(C)c2=O)cc1`, 26.6 µg/mL (≈ 64.3 µM). Then `COCC(=O)Nc1ccc2nc3n(c(=O)c2c1)CCCCC3`, with 41.7 µg/mL (≈ 138 µM).

In turn, `Cn1c(N)c(C(=O)COC(=O)c2ccc3ccccc3c2)c(=O)n(C)c1=O` returned a kinetic solubility of 3.8 µg/mL (≈ 10.3 µM). To `N/C(=N\C(=S)Nc1ccccc1)c1ccccc1` belongs more than 38.3 µg/mL. In the case of `Cc1onc(C(=O)NC2CCCCC2)c1[N+](=O)[O-]`, the solubility (kinetic) is more than 38 µg/mL.

The term solubility (kinetic) denotes solubility judged after dilution from a stock solution rather than from solid.
